From patent US20140287024A1, “NANOPARTICLE-BASED DELIVERY SYSTEM WITH OXIDIZED PHOSPHOLIPIDS AS TARGETING LIGANDS FOR THE PREVENTION, DIAGNOSIS AND TREATMENT OF ATHEROSCLEROSIS” (priority 2013, published 2014)

Experiments:
macrophage CD36 = macrophage CD36 (Homo sapiens, UniProt P16671); details: cited from earlier work
[1] = cited from earlier work
[2] = system: macrophages and macrophage-derived foam cells; details: in vitro; cited from earlier work
MCF7 breast cancer cells = assay: Antiproliferative and proapoptotic effects in MCF7 cells; assay type: cell-based, human; details: at 10 μM or lower
Source text: The chemopreventive actions exerted by green tea are thought to be due to its major polyphenol, (−)-epigallocatechin-3-gallate (EGCG). However, the low level of stability and bioavailability in the body makes administering EGCG at chemopreventive doses unrealistic. EGCG encapsulated chitosan-coated nanoliposomes (CSLIPO-EGCG) were synthesized, and their antiproliferative and proapoptotic effects in MCF7 breast cancer cells were observed.

[3] = Stability of NLCE, CSNLCE and native EGCG in PBS at different pH and temperatures (HPLC); assay type: physicochemical
Protocol: EGCG was detected using a high-performance liquid chromatography (HPLC) system (Waters Corporation, Milford, Mass.) with a UV detector and a ZORBAX SB-C18.5 μm, 150*4.6 mm (Agilent,). The mobile phase was composed of 86% water, 12% acetonitrile, 2% ethyl acetate and 0.043% sulfuric acid, and the flow rate was 1 ml/minute. EGCG was detected at 254 nm.
To determine the stability of NLCE, CSNLCE and native EGCG in a pH range 1-7.4, Hydrochloric acid was added into 200 mM phosphate buffered saline to obtain four different pH solutions (pH=1, 3, 5, 7.4). All samples were then dissolved in these solutions to obtain a final EGCG concentration of 100 μM. The solutions were stored in tightly closed vials and incubated in a 37° C. water bath. EGCG concentrations were measured at 0 h, 0.5 h, 1 h, 1.5 h, 2 h, 2.5 hand 3 h.
[…] To simulate the cell growth, stability was evaluated in the cell culture medium RPMI1640 at 37° C. with or without cells, and with or without superoxide dismutases (SOD, 5 U/ml).

[4] = system: cuff-induced evolving atherosclerotic lesion; details: apolipoprotein E null mice, daily intraperitoneal 10 mg/kg body weight, after 21 days treatment; cited from earlier work
[5] = in vitro; cited from earlier work
[6] = Stability of EGCG in cell culture medium RPMI1640 at 37° C.; assay type: physicochemical; details: after 1 h incubation
Protocol: To determine the stability in different temperatures, NLCE, CSNLCE and native EGCG containing 100 μM of EGCG were dissolved in 1×PBS solution (pH 7.4) and incubated at 4° C., 22° C. and 37° C. for 14 d, 19 h and 3 h, respectively. To simulate the cell growth, stability was evaluated in the cell culture medium RPMI1640 at 37° C. with or without cells, and with or without superoxide dismutases (SOD, 5 U/ml).

[7] = system: THP-1 derived macrophages; assay: EGCG content in THP-1 derived macrophages; assay type: cell-based, human; details: 100 μM
Protocol: Human monocytic THP-1 cell line was purchased from the American Type Tissue Culture Collection (ATCC, Rockville, Md.) and grew in a complete medium according to ATCC instructions. The complete medium consisted of RPMI medium supplemented with 10% fetal bovine serum and 0.05 mM of 2-mercaptoethanol. The cells were incubated in a 5% CO2 atmosphere at 37° C. THP-1 cells were differentiated into macrophages by incubating them with the complete medium containing 50 ng/ml PMA for 72 h.
Macrophages derived from THP-1 cells were treated with 100 μM of NLCE, CSNLCE and native EGCG in the complete medium with or without SOD (5 U/ml). After 2 or 4 h incubation at 4° C. or 37° C., cells were washed three times with ice-cold 1×PBS. The attached cells were scraped by 200 μl of 2% ascorbic acid (pH 3) and each well was washed with 200 μl of methanol, which was then combined with 2% ascorbic acid as a mixture. The volume of mixture was measured and internal standard epicatechin was added into the mixture. After one cycle of freezing and thawing, mixtures were sonicated for 2 min in an ice-cold bath using a sonicator (Branson, Inc.). The mixture was centrifuged at 10,000×g for 20 min at 4° C. The clear supernatant solution was collected and injected into the HPLC system. Precipitates were washed with 0.5 ml of deionized water to get rid of acid and dried in the chemical hood overnight. The dried cells were digested by 0.5 N NaOH. Total cellular protein levels were determined by using a bicinchoninic acid (BCA) kit (Pierce, Cramlington). Total cellular uptake was expressed as μg of EGCG per mg of protein.

macrophage CD36, sequence (P16671 whole entry): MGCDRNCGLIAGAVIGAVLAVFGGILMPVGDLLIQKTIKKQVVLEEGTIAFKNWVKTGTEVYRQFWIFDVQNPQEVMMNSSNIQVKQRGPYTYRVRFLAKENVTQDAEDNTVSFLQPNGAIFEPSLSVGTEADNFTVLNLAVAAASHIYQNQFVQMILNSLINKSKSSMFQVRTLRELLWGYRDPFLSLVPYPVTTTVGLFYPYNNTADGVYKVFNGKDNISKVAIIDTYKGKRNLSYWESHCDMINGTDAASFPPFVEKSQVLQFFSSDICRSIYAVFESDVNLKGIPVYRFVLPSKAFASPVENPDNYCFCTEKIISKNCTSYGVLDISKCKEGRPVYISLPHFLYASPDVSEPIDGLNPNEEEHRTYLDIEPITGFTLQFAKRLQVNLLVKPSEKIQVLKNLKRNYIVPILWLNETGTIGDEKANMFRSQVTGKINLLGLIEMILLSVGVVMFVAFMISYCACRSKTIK

Compound	CD36 binding affinity conferred, relative potency (macrophage CD36)	binding affinity to macrophage CD36 (macrophage CD36)	peak plasma EGCG concentration ([1]; after drinking 2 cups of green tea) [µM]	absolute oral bioavailability ([1]; after drinking tea containing catechins at 10 mg/kg body weight, humans and research animals)	apoptosis of macrophages and macrophage-derived foam cells [2]	expression and production of inflammatory factors [2]	antiproliferative and proapoptotic effectiveness (MCF7 breast cancer cells)	EGCG left ([3]; 100 μM, 1×PBS pH 7.4, 37° C., after 3 h)	stability in acidic pH ([3]; 100 μM, pH 1.0 to 5.0, 37° C., 3 h)	stability in neutral pH ([3]; 100 μM, pH 7.4, 37° C., after 3 h)	EGCG degraded ([3]; 4° C., after 19 hours, same initial concentration) [%]	EGCG left ([3]; after incubating for 8 h at 23° C.) [%]	order of stability of EGCG at the same pH ([3]; in all conditions)	reduction of atherosclerotic lesion size [4] [%]	stability in water and physiological fluid [5]	EGCG left [6] [%]	EGCG content in macrophages ([7]; complete medium containing 5 U/ml of SOD, 2 h incubation at 37° C.) [μg/mg protein]	EGCG content in THP-1 derived macrophages ([7]; complete medium without SOD, 2 h incubation at 37° C.) [μg/mg protein]	EGCG content in macrophages ([7]; in the presence of SOD, after 4 h) [μg/mg protein]
1-Palmitoyl-2-(11-carboxy-9-oxoundec-10-enoyl)-sn-glycero-3-phosphatidylcholine [KDdiA-PC]	more potently than any hydroperoxy phospholipid species	high binding affinity	–	–	–	–	–	–	–	–	–	–	–	–	–	–	–	–	–
5-keto-6-octendioic acid esters of 2-lyso-PC [KOdiA-PC]	–	high binding affinity	–	–	–	–	–	–	–	–	–	–	–	–	–	–	–	–	–
O=C(O[C@@H]1Cc2c(O)cc(O)cc2O[C@@H]1c1cc(O)c(O)c(O)c1)c1cc(O)c(O)c(O)c1 [EGCG, (−)-epigallocatechin-3-gallate]	–	–	0.15	about 0.1%	induce apoptosis	inhibit	doesn't have any beneficial effects	completely degraded	stable	not stable and could not be detected	91	1.52	CSNLCE>NLCE>native EGCG	55	unstable	3.7	0.098	0.031	0.109
